Experimental data as given in ChEMBL document CHEMBL1137407, “Identification and optimization of anthranilic sulfonamides as novel, selective cholecystokinin-2 receptor antagonists” (J Med Chem, 2006).

Assays:
Rattus norvegicus [1] = species on record: Rattus norvegicus; assay: Plasma concentration in rat; assay type: ADME, organism-based; settings: in vivo
[2] = molecular target: T1, Cholecystokinin receptor type A (Cavia porcellus) (UniProt Q63931); assay: Antagonizing effect on CCK-8S-stimulated guinea pig gall bladder smooth muscle contraction by Schild analysis; assay type: functional, tissue-based; settings: Muscle tissue
T1 sequence (whole entry): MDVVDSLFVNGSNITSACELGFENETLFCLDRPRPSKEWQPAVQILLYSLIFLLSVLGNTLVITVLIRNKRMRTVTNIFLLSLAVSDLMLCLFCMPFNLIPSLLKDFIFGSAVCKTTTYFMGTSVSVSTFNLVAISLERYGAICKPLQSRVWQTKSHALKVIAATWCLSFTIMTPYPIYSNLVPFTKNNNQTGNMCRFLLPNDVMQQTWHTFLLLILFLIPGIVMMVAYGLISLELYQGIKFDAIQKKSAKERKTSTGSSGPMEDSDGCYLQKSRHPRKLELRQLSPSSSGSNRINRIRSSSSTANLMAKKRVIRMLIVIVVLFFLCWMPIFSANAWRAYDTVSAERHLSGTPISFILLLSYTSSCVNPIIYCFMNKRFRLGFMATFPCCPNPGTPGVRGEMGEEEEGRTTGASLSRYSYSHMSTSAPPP

[3] = Oral bioavailability in Beagle dog at 20 umol/kg, po; assay type: ADME, organism-based, Canis lupus familiaris; settings: in vivo
[4] = molecular target: T2, Cholecystokinin receptor type A (Homo sapiens, UniProt P32238)
T2 sequence (P32238 whole entry): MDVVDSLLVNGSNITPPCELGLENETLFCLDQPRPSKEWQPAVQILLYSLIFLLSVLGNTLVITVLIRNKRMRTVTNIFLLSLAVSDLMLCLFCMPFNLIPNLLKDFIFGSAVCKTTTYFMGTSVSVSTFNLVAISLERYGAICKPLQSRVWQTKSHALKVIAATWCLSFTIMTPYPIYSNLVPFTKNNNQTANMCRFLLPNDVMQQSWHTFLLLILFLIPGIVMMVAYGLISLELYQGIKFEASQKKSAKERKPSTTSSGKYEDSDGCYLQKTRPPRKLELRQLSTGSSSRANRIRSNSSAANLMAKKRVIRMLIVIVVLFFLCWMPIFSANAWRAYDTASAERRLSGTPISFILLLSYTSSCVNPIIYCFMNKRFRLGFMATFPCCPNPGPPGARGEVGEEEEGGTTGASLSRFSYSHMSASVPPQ
Description: Displacement of [125I]CCK-8S from human CCK1R

Rattus norvegicus [5] = assay: Inhibition of pentagastrin-stimulated gastric acid secretion in iv dosed anesthetized rat measured as increase in pH; assay type: functional, Stomach
[6] = Stability in human liver microsome after 30 mins; assay type: ADME; settings: liver microsomes, read-out: Stability
[7] = Half life in Beagle dog at 2 umol/kg, iv; assay type: ADME, organism-based, Canis lupus familiaris; settings: in vivo
[8] = Half life in Sprague-Dawley rat at 2 umol/kg, iv; assay type: ADME, organism-based; settings: in vivo
[9] = Clearance in Beagle dog at 2 umol/kg, iv; assay type: ADME, organism-based, Canis lupus familiaris; settings: in vivo
[10] = Oral bioavailability in Sprague-Dawley rat at 2 umol/kg, po; assay type: ADME, organism-based; settings: in vivo
[11] = Clearance in Sprague-Dawley rat at 2 umol/kg, iv; assay type: ADME, organism-based; settings: in vivo
Cavia porcellus = species on record: Cavia porcellus; assay: Antagonizing effect on penta gastrin-stimulated guinea pig gastric smooth muscle contraction by Schild analysis; assay type: functional, Muscle tissue
[12] = Stability in rat liver microsome after 30 mins; assay type: ADME; settings: liver microsomes, read-out: Stability
[13] = molecular target: T3, Gastrin/cholecystokinin type B receptor (Homo sapiens, UniProt P32239); settings: read-out: Log Ki (converted)
T3 sequence (P32239 whole entry): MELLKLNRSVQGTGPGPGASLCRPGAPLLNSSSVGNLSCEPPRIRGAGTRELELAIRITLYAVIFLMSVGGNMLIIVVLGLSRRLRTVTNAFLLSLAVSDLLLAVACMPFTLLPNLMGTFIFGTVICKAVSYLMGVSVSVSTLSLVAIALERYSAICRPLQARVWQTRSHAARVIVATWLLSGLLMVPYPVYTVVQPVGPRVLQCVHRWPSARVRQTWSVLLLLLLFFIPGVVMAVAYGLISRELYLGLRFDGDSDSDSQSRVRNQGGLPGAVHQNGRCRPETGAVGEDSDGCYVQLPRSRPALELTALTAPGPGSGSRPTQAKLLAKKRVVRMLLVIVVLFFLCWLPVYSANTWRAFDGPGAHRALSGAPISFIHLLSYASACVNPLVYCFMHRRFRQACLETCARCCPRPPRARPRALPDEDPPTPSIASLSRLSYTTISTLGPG
Description: Displacement of [125I]CCK-8S from human CCK2R

[14] = Stability in human liver S9 fraction after 15 mins; assay type: ADME; settings: read-out: Stability
[15] = Stability in rat liver S9 fraction after 30 mins; assay type: ADME; settings: read-out: Stability
[16] = Binding to alpha-glycoprotein; assay type: ADME; settings: human, read-out: PPB (converted)
[17] = Stability in human liver S9 fraction after 30 mins; assay type: ADME; settings: read-out: Stability
[18] = Partition coefficient, log D at pH 7.4; assay type: physicochemical; settings: octanol/water
[19] = Dissociation constant, pKa of the compound; assay type: physicochemical
[20] = Stability in dog liver S9 fraction after 30 mins; assay type: ADME, Canis lupus familiaris; settings: read-out: Stability
[21] = Stability in human liver microsome after 15 mins; assay type: ADME; settings: liver microsomes, read-out: Stability
Caco-2 [22] = assay: Apparent permeability from basolateral to apical side of Caco-2 cells; assay type: ADME, cell-based; settings: human
Caco-2 [23] = assay: Apparent permeability from apical to basolateral side of Caco-2 cells; assay type: ADME, cell-based; settings: human
[24] = Stability in rat liver S9 fraction after 15 mins; assay type: ADME; settings: read-out: Stability
[25] = Stability in dog liver S9 fraction after 15 mins; assay type: ADME, Canis lupus familiaris; settings: read-out: Stability
Rattus norvegicus [26] = assay: Inhibition of pentagastrin-stimulated gastric acid secretion in po dosed conscious gastric fistula Sprague-Dawley rat; assay type: functional; settings: Stomach

Compound: O=C(c1ccc(Br)cc1NS(=O)(=O)c1cccc2nsnc12)N1CCCCC1
- concentration (Rattus norvegicus [1]): 1300 nM
- Kb [2]: > 10 µM
- pKb [2]: < 5
- bioavailability [3]: 33%
- Ki ([4]; read-out: Ki): > 10 µM
- ED50 (Rattus norvegicus [5]): 0.6 mg/kg/h
- remaining at 0.5 h [6]: 15%
- half-life [7]: 25.2 min
- half-life [8]: 15.6 min
- clearance [9]: 11.7 mL/min/kg
- bioavailability [10]: 68%
- clearance [11]: 11.7 mL/min/kg
- pKb (Cavia porcellus): 8.8
- remaining at 0.5 h [12]: 8%

Compound: O=C(c1cc(Cl)ccc1NS(=O)(=O)c1cccc2nsnc12)N1CCCCC1
- Ki [13]: 0.398 µM
- Ki ([4]; read-out: Log Ki (converted)): > 10 µM
- remaining at 0.5 h [6]: 16%
- half-life [8]: 21 min
- clearance [11]: 7 mL/min/kg
- remaining at 0.5 h [12]: 9%

Compound: O=C(c1ccc(Br)cc1NS(=O)(=O)c1cccc2nccnc12)N1CCCCC1
- Ki [13]: 0.0631 µM
- Ki ([4]; read-out: Ki): > 10 µM
- remaining at 0.5 h [6]: 21%
- half-life [8]: 20.4 min
- bioavailability [10]: 50%
- clearance [11]: 13.8 mL/min/kg
- remaining at 0.5 h [12]: 8%

Compound: O=C(c1ccc(Cl)cc1NS(=O)(=O)c1cccc2nsnc12)N1CCCCC1
- remaining at 0.25 h [14]: 69%
- remaining at 0.5 h [15]: 62%
- Ki [13]: 0.0398 µM
- fraction unbound [16]: 0.23
- remaining at 0.5 h [17]: 51%
- logD [18]: 2.1
- pKa [19]: 5.47
- Kb [2]: > 10 µM
- pKb [2]: < 5
- Ki ([4]; read-out: Ki): > 10 µM
- remaining at 0.5 h [6]: 3.9%
- half-life [8]: 9.6 min
- remaining at 0.5 h [20]: 59%
- remaining at 0.25 h [21]: 19%
- Papp (Caco-2 [22]): 1.8 ×10⁻⁶ cm/s
- Papp (Caco-2 [23]): 22.7 ×10⁻⁶ cm/s
- remaining at 0.25 h [24]: 78%
- bioavailability [10]: 42%
- remaining at 0.25 h [25]: 78%
- clearance [11]: 20.8 mL/min/kg
- pKb (Cavia porcellus): 8.49

Compound: O=C(c1ccc(Cl)cc1NS(=O)(=O)c1cccc2nonc12)N1CCCCC1
- Ki [13]: 1.58 µM
- pKa [19]: 6.18
- Ki ([4]; read-out: Ki): > 10 µM

Compound: O=C(c1ccc(I)cc1NS(=O)(=O)c1cccc2nccnc12)N1CCOCC1
- bioavailability [3]: 51%
- Ki ([4]; read-out: Ki): > 10 µM
- remaining at 0.5 h [6]: 60%
- half-life [7]: 90 min
- half-life [8]: 37.2 min
- clearance [9]: 1.62 mL/min/kg
- bioavailability [10]: 55%
- clearance [11]: 6 mL/min/kg
- ED50 (Rattus norvegicus [26]): 0.57 mg/kg
- remaining at 0.5 h [12]: 46%
